14 molecules from US8586600B2, “Heterocyclic compounds and uses thereof” (Celgene Avilomics Research, Inc., priority 2007, dated 2013) can be followed below.

Like-named read-outs stand apart in the source and are kept apart here.

In assay [1] the target is T1, c-KIT kinase (Homo sapiens (Human), UniProt P10721). As to the kind of experiment: cKit inhibition assay Method C (electrophoretic mobility shift). The class given is biochemical. Conditions: read-out: c-KIT % Inhibition. Here is the method: The reaction was started by adding the ATP and incubating for 1 hour at room temperature. […] Phosphorylated and unphosphorylated substrate was separated by charge using electrophoretic mobility shift. Product formed was compared to control wells to determine inhibition or enhancement of enzyme activity.
T1 sequence (P10721 26-976): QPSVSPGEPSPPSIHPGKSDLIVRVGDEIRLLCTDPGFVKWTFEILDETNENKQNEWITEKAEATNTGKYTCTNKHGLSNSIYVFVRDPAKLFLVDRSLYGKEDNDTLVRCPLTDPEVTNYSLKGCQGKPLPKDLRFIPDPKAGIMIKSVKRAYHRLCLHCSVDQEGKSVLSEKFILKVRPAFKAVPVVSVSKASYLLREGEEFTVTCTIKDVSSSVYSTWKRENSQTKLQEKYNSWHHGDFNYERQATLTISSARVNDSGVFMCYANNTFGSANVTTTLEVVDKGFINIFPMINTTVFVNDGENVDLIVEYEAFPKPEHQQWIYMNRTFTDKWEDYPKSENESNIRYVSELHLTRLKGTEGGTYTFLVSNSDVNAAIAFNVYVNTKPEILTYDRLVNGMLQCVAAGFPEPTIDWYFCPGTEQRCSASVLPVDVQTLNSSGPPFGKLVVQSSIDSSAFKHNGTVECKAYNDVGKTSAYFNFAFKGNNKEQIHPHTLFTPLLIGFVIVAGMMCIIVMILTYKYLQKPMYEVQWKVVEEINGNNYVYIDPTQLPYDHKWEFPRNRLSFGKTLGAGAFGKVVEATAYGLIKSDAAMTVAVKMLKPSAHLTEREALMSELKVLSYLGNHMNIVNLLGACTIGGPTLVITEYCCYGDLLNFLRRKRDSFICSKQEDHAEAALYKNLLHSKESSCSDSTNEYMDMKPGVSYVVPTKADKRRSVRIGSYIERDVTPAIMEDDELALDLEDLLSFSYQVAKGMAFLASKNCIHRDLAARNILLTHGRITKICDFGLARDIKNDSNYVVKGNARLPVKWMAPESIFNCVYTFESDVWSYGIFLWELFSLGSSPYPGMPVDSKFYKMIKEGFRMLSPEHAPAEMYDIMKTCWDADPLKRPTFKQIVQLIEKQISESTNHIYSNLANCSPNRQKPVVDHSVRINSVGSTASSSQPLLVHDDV

Assay [2] deals with T2, c-KIT (V654A) (Homo sapiens (Human), UniProt P10721, V654A). As to the kind of experiment: c-Kit (V654A) Omnia assay with pre-activated enzyme (Method D). The class given is biochemical. Conditions: [ATP]=100 μM, read-out: Mutant c-KIT (V654A) IC50. On the procedure: 10× enzyme/ATP stocks were pre-incubated for 30 min at room temperature to pre-activate each enzyme prior to compound exposure. […] Kinase reactions were started with the addition of 45 μL of the Y9 or Y12-Sox peptide substrate and monitored every 30-90 seconds for 60 minutes at λex360/λem485 in a Synergy^4 plate reader from BioTek (Winooski, Vt.).
T2 sequence (P10721 26-976 V654A): as the sequence (P10721 26-976) above, with V629A counted along it

Assay [3] addresses T2, c-KIT (V654A). Nature of the assay: c-Kit (V654A) Omnia assay for potency assessment (Method E). The assay is classed as biochemical. The settings on record: [ATP]=220 μM, read-out: Mutant c-KIT (V654A) IC50 Apparent. On the procedure: (§1) Kinase reactions were started with the addition of 45 μL of the Y9 or Y12-Sox peptide substrate and monitored every 30-90 seconds for 60 minutes at λex360/λem485 in a Synergy^4 plate reader from BioTek (Winooski, Vt.).

For another assay, the target named is PDGFR-α (Homo sapiens (Human), UniProt P16234). As to the kind of experiment: PDGFR inhibition assay Method B (Z'-LYTE biochemical assay). The settings on record: compound at 1 μM. The source says:
The Z'-LYTE™ biochemical assay employs a fluorescence-based, coupled-enzyme format and is based on the differential sensitivity of phosphorylated and non-phosphorylated peptides to proteolytic cleavage.

Assay [4] addresses T1, c-KIT kinase. As to the kind of experiment: c-KIT mass spectral analysis of tryptic digest (MALDI-TOF). The settings on record: 3 hours incubation at 10× excess of compound. The assay is classed as binding. Here is the method: Iodoacetamide was used as the alkylating agent after compound incubation. […] For tryptic digests a 5 μl aliquot (14 pmols) was diluted with 10 ul of 0.1% TFA prior to micro C18 Zip Tipping directly onto the MALDI target using alpha cyano-4-hydroxy cinnamic acid as the matrix (5 mg/ml in 0.1% TFA:acetonitrile 50:50).
The tryptic digest was analyzed by mass spectrometer (MALDI-TOF).

In the next assay the target is c-KIT (T670I) (Homo sapiens (Human), UniProt P10721, T670I). Nature of the assay: c-Kit (T670I) Omnia assay for potency assessment (Method E). The class given is biochemical. Conditions: [ATP]=220 μM, read-out: Mutant c-KIT (T670I) IC50 Apparent. Here is the method: as §1
Chain of c-KIT (T670I) (P10721 26-976 T670I): as the sequence (P10721 26-976) above, with T645I counted along it

Chain of PDGFR-α (P16234 24-1089): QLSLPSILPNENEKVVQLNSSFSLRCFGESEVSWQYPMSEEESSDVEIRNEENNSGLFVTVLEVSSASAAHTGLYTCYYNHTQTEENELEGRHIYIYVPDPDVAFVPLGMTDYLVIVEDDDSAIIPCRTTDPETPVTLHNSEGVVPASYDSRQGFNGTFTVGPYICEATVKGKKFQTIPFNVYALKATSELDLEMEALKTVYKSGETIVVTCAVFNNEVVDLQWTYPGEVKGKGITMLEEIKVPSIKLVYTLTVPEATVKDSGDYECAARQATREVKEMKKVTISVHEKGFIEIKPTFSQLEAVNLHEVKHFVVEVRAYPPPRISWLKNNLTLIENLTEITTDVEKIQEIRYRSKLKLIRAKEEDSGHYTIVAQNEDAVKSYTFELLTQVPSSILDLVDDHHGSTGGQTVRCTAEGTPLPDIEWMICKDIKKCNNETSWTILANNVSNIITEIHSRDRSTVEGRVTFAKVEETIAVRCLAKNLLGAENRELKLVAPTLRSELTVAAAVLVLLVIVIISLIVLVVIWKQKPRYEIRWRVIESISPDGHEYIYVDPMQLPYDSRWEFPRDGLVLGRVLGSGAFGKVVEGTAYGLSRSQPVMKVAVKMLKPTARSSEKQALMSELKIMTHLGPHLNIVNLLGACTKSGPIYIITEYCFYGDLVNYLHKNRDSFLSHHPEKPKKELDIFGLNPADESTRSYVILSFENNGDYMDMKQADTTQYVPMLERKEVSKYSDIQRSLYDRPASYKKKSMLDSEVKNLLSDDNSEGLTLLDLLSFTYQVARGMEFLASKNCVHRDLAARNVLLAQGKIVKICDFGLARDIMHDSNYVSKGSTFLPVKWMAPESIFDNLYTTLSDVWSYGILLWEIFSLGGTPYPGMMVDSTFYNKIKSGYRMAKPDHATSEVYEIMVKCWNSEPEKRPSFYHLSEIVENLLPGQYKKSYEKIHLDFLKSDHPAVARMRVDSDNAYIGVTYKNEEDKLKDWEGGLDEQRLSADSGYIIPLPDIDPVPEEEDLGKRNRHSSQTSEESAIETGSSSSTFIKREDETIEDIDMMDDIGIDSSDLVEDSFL

In general, inhibition refers to the percentage by which the read-out fell short of the control. As to `Cc1ccc(NC(=O)c2ccc(NC(=O)COC(=O)c3c(Cl)cccc3Cl)cc2)cc1Nc1nccc(-c2cccnc2)n1` [II-26], the inhibition at 1 µM at c-KIT kinase [1] (compound at 1 μM, 300 μM ATP) was found to be 94%.

What is called IC50 is the concentration that gives 50% inhibition. `Cc1ccc(NC(=O)c2ccc(NS(=O)(=O)c3cnccc3Cl)cc2)cc1Nc1nccc(-c2cccnc2)n1` [II-40]: the IC50 on c-KIT (V654A) [2] is 10000 nM.

As for `Cc1ccc(NC(=O)c2ccc(NS(=O)(=O)c3ccc(Cl)nc3)cc2)cc1Nc1nccc(-c2cccnc2)n1` [II-41], at c-KIT (V654A) [3], the half-maximal inhibitory concentration (IC50) was 173 nM.

As to `C=CC(=O)NCc1ccc(C(=O)Nc2ccc(C)c(Nc3nccc(-c4cccnc4)n3)c2)cc1` [II-6, 4-(Acryloylaminomethyl)-N-[4-methyl-3-(4-pyridin-3-ylpyrimidin-2-ylamino)phenyl]benzamide], the inhibition at 1 µM at c-KIT kinase [1] (compound at 1 μM, 300 μM ATP) came to 91%.

For the molecule `C=CC(=O)Nc1ccc2cc(C(=O)Nc3ccc(C)c(Nc4nccc(-c5cccnc5)n4)c3)ccc2c1` [II-44, 6-Acryloylaminonaphthalene-2-carboxylic acid[4-methyl-3-(4-pyridin-3-ylpyrimidin-2-ylamino)phenyl]amide], the inhibition at 1 µM on c-KIT kinase [1] was determined as 95%.

Turning to `C=CC(=O)Nc1ccc(C(=O)Nc2ccc(C)c(Nc3nccc(-c4cccnc4)n3)c2)cc1C(F)(F)F` [II-2], on c-KIT (V654A) [3], the IC50 was 83 nM.

Regarding `C/C=C/C(=O)Nc1ccc(C(=O)Nc2ccc(C)c(Nc3nccc(-c4cccnc4)n3)c2)cc1` [II-4], at 1 µM the inhibition against PDGFR-α was 28%.

In the case of `Cc1ccc(NC(=O)c2ccc(NC(=O)CCl)cc2)cc1Nc1nccc(-c2cccnc2)n1` [II-53], the half-maximal inhibitory concentration (IC50) was found to be 937 nM at c-KIT (V654A) [2] and 260 nM at c-KIT (V654A) [3].

As for `Cc1ccc(NC(=O)c2ccc(CN3C(=O)C=CC3=O)cc2)cc1Nc1nccc(-c2cccnc2)n1` [II-8, 4-(2,5-Dioxo-2,5-dihydropyrrol-1-ylmethyl)-N-[4-methyl-3-(4-pyridin-3-yl-pyrimidin-2-ylamino)-phenyl]benzamide], the inhibition at 1 µM at c-KIT kinase [1] (compound at 1 μM, 300 μM ATP) was 78%.

For the molecule `Cc1ccc(C(=O)Nc2ccc(NC(=O)CCl)c(C(F)(F)F)c2)cc1Nc1nccc(-c2cccnc2)n1` [III-14], on c-KIT kinase [4], the “covalent modification of c-KIT (mass spectral analysis)” value was “covalently bound to c-KIT protein at two target cystein residues: Cys808 (minor) and Cys788 (major)”.

On to `Cc1ccc(NC(=O)c2ccc(NC(=O)C(C)Cl)cc2)cc1Nc1nccc(-c2cccnc2)n1` (centres unmarked) [II-54], for which, at c-KIT (V654A) [2], the IC50 was 10000 nM.

For `Cc1ccc(NC(=O)c2ccc(NC(=O)/C=C/CN(C)C)cc2)cc1Nc1nccc(-c2cccnc2)n1` [II-5], at c-KIT kinase [1] (compound at 1 μM, 300 μM ATP), the inhibition at 1 µM was 66%.

As for `Cc1ccc(C(=O)Nc2ccc(NC(=O)/C=C/CN(C)C)c(C(F)(F)F)c2)cc1Nc1nccc(-c2cccnc2)n1` [III-6], the IC50 stood at 3990 nM on c-KIT (V654A) [2], 216 nM on c-KIT (V654A) [3] and 1570 nM at c-KIT (T670I).

For `Cc1ccc(NC(=O)c2ccc(NC(=O)/C=C/CN(C)C)c(C(F)(F)F)c2)cc1Nc1nccc(-c2cccnc2)n1` [II-55], the IC50 on c-KIT (V654A) [2] amounted to 9150 nM.
